Data published in paper PMC11206519, “Multi-Endpoint Toxicological Assessment of Chrysin Loaded Oil-in-Water Emulsion System in Different Biological Models” (Nanomaterials, 2024).
Where two headings read alike, the source gives them in different places.

Experiments:
[1] = test system: D. melanogaster trans-heterozygous mwh+/+flr3 larvae of the ST cross; test: SMART wing spot test, mutagenicity, ST cross; format: in vivo, Drosophila melanogaster; details: for Statistical diagnosis, Small Single / Statistical diagnosis, Total Spots: vs DI
Experimental: (§4) The somatic mutation and recombination test, or the wing spot test, using D. melanogaster was employed as an in vivo system to assess the mutagenicity and anti-mutagenicity of chrysin-ES. Two different crosses were conducted: (i) a standard cross (ST) and (ii) a high bioactivation cross (HB) [18]. The standard cross larvae were obtained from virgin female of flr3/TM3, Ser crossed with males of mwh/mwh, while the HB cross larvae expressing cytochrome P450 enzymes involved in xenobiotic biotransformation were obtained from virgin females of ORR/ORR; flr^3/In (3LR) TM3, ri p^psep l (3)89Aa bx^34e e Bd^s crossed with males of mwh/mwh. The flies were cultured at a constant temperature of 25 ± 1 °C and 60–70% RH at photoperiod 12:12 (light/dark). To evaluate the mutagenicity of chrysin and chrysin-ES, a hundred larva F1 progenies derived from the above crossing were fed with instant Drosophila medium (Formula 4-24®), Carolina, Burlington, NC, USA) containing chrysin or chrysin-ES (20–120 µg/mL). DI was used as a negative control, while 20 mM urethane (URE) was used as a positive control. The larvae were reared on each medium until pupation at 25 °C. After that, forty wings of surviving flies in each group were collected for mutant analysis. The mutant spots on the wings, including small single spots, large single spots, and twin spots, were counted.

[2] = test system: D. melanogaster trans-heterozygous mwh+/+flr3 larvae of the HB cross; test: SMART wing spot test, mutagenicity, HB cross; format: in vivo, Drosophila melanogaster
Experimental: as §4

[3] = test system: S. typhimurium TA 98; test: Ames test, mutagenicity; format: cell-based, Salmonella Typhimurium
Experimental: (§1) The S. typhimurium strains TA 98 and TA 100 were used to detect frameshift and base-pair mutations, respectively. […] Then, they were poured onto minimal glucose agar containing a trace amount of histidine, following incubation at 37 °C for 48 h. Then, the revertant colonies were counted and compared with the negative control. If the number of revertant colonies in the tested sample treatment is at least twice that of the negative control (spontaneous revertant colonies), it is considered a mutagen.

[4] = test system: S. typhimurium TA 100; test: Ames test, mutagenicity; format: cell-based, Salmonella Typhimurium
Experimental: as §1

[5] = test system: S. typhimurium TA98; test: Ames test, anti-mutagenicity
Experimental: (§2) Furthermore, the anti-mutagenicity of the samples was performed by a similar procedure, as mentioned above. […] The percentage inhibition (decrease revertant colony number) was calculated as in the following equation:Anti-mutagenicity (%) = [1 − (b/a)] × 100 • a = revertant colony number induced via standard mutagen (positive control). • b = revertant colony number induced by standard mutagen in the presence of each sample treatment.
(§3) The percent of inhibition between 0–20%, 21–40%, 41–60%, and higher than 60% indicate negligible, weak, moderate, and strong anti-mutagenicity, respectively.

[6] = test system: S. typhimurium TA100; test: Ames test, anti-mutagenicity
Experimental: as §2, §3

[7] = AF-2 0.1 µg/plate, −S9, 5.7 µM/plate
[8] = AF-2 0.1 µg/plate, −S9, 11.4 µM/plate
[9] = AF-2 0.1 µg/plate, −S9, 22.8 µM/plate
[10] = PhIP 0.1 µg/plate, +S9, 0.35 µM/plate
[11] = PhIP 0.1 µg/plate, +S9, 0.70 µM/plate
[12] = PhIP 0.1 µg/plate, +S9, 1.40 µM/plate
[13] = PhIP 0.1 µg/plate, +S9, 2.85 µM/plate
[14] = PhIP 0.1 µg/plate, +S9, 5.70 µM/plate
[15] = Salmonella enterica, TYPHIMURIUM, read-out: % mutagenic inhibition, AF-2 0.1 µg/plate, −S9, 5.7 µM/plate
[16] = Salmonella enterica, TYPHIMURIUM, read-out: % mutagenic inhibition, AF-2 0.1 µg/plate, −S9, 11.4 µM/plate
[17] = Salmonella enterica, TYPHIMURIUM, read-out: % mutagenic inhibition, AF-2 0.1 µg/plate, −S9, 22.8 µM/plate
[18] = IQ 0.05 µg/plate, +S9, 0.35 µM/plate
[19] = IQ 0.05 µg/plate, +S9, 0.70 µM/plate
[20] = IQ 0.05 µg/plate, +S9, 1.40 µM/plate
[21] = IQ 0.05 µg/plate, +S9, 2.85 µM/plate
[22] = IQ 0.05 µg/plate, +S9, 5.70 µM/plate

O=c1cc(-c2ccccc2)oc2cc(O)cc(O)c12 [Chrysin, 5,7-dihydroxyflavone]
Mutant spots per individual (number of spots), Large Single ([1]; 20 µg/mL): 0 (0) | Mutant spots per individual (number of spots), Small Single ([1]; 20 µg/mL): 0.38 (15) | Mutant spots per individual (number of spots), Total Spots ([1]; 20 µg/mL): 0.38 (15) | Mutant spots per individual (number of spots), Twin ([1]; 20 µg/mL): 0 (0) | Statistical diagnosis, Small Single ([1]; 20 µg/mL): − | Statistical diagnosis, Total Spots ([1]; 20 µg/mL): − | Mutant spots per individual (number of spots), Large Single ([1]; 40 µg/mL): 0.03 (1) | Mutant spots per individual (number of spots), Total Spots ([1]; 40 µg/mL): 0.38 (15) | Mutant spots per individual (number of spots), Twin ([1]; 40 µg/mL): 0 (0) | Statistical diagnosis, Small Single ([1]; 40 µg/mL): − | Statistical diagnosis, Total Spots ([1]; 40 µg/mL): − | Mutant spots per individual (number of spots), Large Single ([1]; 80 µg/mL): 0 (0) | Mutant spots per individual (number of spots), Small Single ([1]; 80 µg/mL): 0.58 (23) | Mutant spots per individual (number of spots), Total Spots ([1]; 80 µg/mL): 0.58 (23) | Mutant spots per individual (number of spots), Twin ([1]; 80 µg/mL): 0 (0) | Statistical diagnosis, Small Single ([1]; 80 µg/mL): − | Statistical diagnosis, Total Spots ([1]; 80 µg/mL): − | Mutant spots per individual (number of spots), Large Single ([1]; 120 µg/mL): 0.08 (3) | Mutant spots per individual (number of spots), Small Single ([1]; 120 µg/mL): 0.83 (33) | Mutant spots per individual (number of spots), Total Spots ([1]; 120 µg/mL): 0.90 (36) | Mutant spots per individual (number of spots), Twin ([1]; 120 µg/mL): 0 (0) | Statistical diagnosis, Small Single ([1]; 120 µg/mL): − | Statistical diagnosis, Total Spots ([1]; 120 µg/mL): − | mutagenicity in SMART ([1]; 20–120 μg/mL, ST and HB cross): non-mutagenic | Mutant spots per individual (number of spots), Large Single ([2]; 20 µg/mL): 0.03 (1) | Mutant spots per individual (number of spots), Total Spots ([2]; 20 µg/mL): 0.23 (9) | Mutant spots per individual (number of spots), Twin ([2]; 20 µg/mL): 0.03 (1) | Mutant spots per individual (number of spots), Large Single ([2]; 40 µg/mL): 0.03 (1) | Mutant spots per individual (number of spots), Total Spots ([2]; 40 µg/mL): 0.15 (6) | Mutant spots per individual (number of spots), Twin ([2]; 40 µg/mL): 0 (0) | Mutant spots per individual (number of spots), Large Single ([2]; 80 µg/mL): 0.03 (1) | Mutant spots per individual (number of spots), Total Spots ([2]; 80 µg/mL): 0.15 (6) | Mutant spots per individual (number of spots), Twin ([2]; 80 µg/mL): 0 (0) | Mutant spots per individual (number of spots), Large Single ([2]; 120 µg/mL): 0 (0) | Mutant spots per individual (number of spots), Small Single ([2]; 120 µg/mL): 0.08 (3) | Mutant spots per individual (number of spots), Total Spots ([2]; 120 µg/mL): 0.08 (3) | Mutant spots per individual (number of spots), Twin ([2]; 120 µg/mL): 0 (0) | Statistical diagnosis, Small Single ([2]; 120 µg/mL, vs DI): − | Statistical diagnosis, Total Spots ([2]; 120 µg/mL, vs DI): − | Number of Revertant Colonies ([3]; +S9, 5.7 µM/plate): 27 ± 7 | Number of Revertant Colonies ([3]; +S9, 11.4 µM/plate): 26 ± 8 | Number of Revertant Colonies ([3]; +S9, 22.8 µM/plate): 27 ± 8 | mutagenicity in the Ames test ([3]; TA98 and TA100, presence and absence of metabolic activation): did not induce mutations | Number of Revertant Colonies ([3]; −S9, 5.7 µM/plate): 22 ± 6 | Number of Revertant Colonies ([3]; −S9, 11.4 µM/plate): 23 ± 5 | Number of Revertant Colonies ([3]; −S9, 22.8 µM/plate): 23 ± 7 | Number of Revertant Colonies ([4]; +S9, 5.7 µM/plate): 136 ± 12 | Number of Revertant Colonies ([4]; +S9, 11.4 µM/plate): 131 ± 7 | Number of Revertant Colonies ([4]; +S9, 22.8 µM/plate): 136 ± 8 | Number of Revertant Colonies ([4]; −S9, 5.7 µM/plate): 120 ± 6 | Number of Revertant Colonies ([4]; −S9, 11.4 µM/plate): 115 ± 7 | Number of Revertant Colonies ([4]; −S9, 22.8 µM/plate): 117 ± 4 | Inhibitory Classification [5, 7]: Mild | Number of Revertant Colonies [5, 7]: 166 ± 23 | Inhibitory Classification [5, 8]: Moderate | Number of Revertant Colonies [5, 8]: 140 ± 39 | Inhibitory Classification [5, 9]: Mild | Number of Revertant Colonies [5, 9]: 164 ± 56 | Inhibitory Classification [5, 10]: Moderate | Number of Revertant Colonies [5, 10]: 214 ± 9 | Inhibitory Classification [5, 11]: Strong | Number of Revertant Colonies [5, 11]: 153 ± 10 | Inhibitory Classification [5, 12]: Strong | Number of Revertant Colonies [5, 12]: 77 ± 12 | Inhibitory Classification [5, 13]: Strong | Number of Revertant Colonies [5, 13]: 71 ± 9 | Inhibitory Classification [5, 14]: Strong | Number of Revertant Colonies [5, 14]: 45 ± 18 | inhibition at […] [5, 15]: 34% | inhibition at 11.4 µM [5, 16]: 45% | inhibition at 22.8 µM [5, 17]: 35% | inhibition at 0.35 µM ([5]; Salmonella enterica, TYPHIMURIUM, read-out: % mutagenic inhibition, PhIP 0.1 µg/plate, +S9, 0.35 µM/plate): 46% | inhibition at 0.7 µM ([5]; Salmonella enterica, TYPHIMURIUM, read-out: % mutagenic inhibition, PhIP 0.1 µg/plate, +S9, 0.70 µM/plate): 62% | inhibition at 1.4 µM ([5]; Salmonella enterica, TYPHIMURIUM, read-out: % mutagenic inhibition, PhIP 0.1 µg/plate, +S9, 1.40 µM/plate): 81% | inhibition at 2.85 µM ([5]; Salmonella enterica, TYPHIMURIUM, read-out: % mutagenic inhibition, PhIP 0.1 µg/plate, +S9, 2.85 µM/plate): 82% | inhibition at […] ([5]; Salmonella enterica, TYPHIMURIUM, read-out: % mutagenic inhibition, PhIP 0.1 µg/plate, +S9, 5.70 µM/plate): 89% | Inhibitory Classification [6, 7]: Mild | Number of Revertant Colonies [6, 7]: 252 ± 14 | Inhibitory Classification [6, 8]: Mild | Number of Revertant Colonies [6, 8]: 250 ± 6 | Inhibitory Classification [6, 9]: Mild | Number of Revertant Colonies [6, 9]: 235 ± 20 | Inhibitory Classification [6, 18]: Moderate | Number of Revertant Colonies [6, 18]: 328 ± 32 | Inhibitory Classification [6, 19]: Strong | Number of Revertant Colonies [6, 19]: 243 ± 16 | Inhibitory Classification [6, 20]: Strong | Number of Revertant Colonies [6, 20]: 161 ± 10 | Inhibitory Classification [6, 21]: Strong | Number of Revertant Colonies [6, 21]: 106 ± 15 | Inhibitory Classification [6, 22]: Strong | Number of Revertant Colonies [6, 22]: 47 ± 10 | inhibition at […] [6, 15]: 32% | inhibition at 11.4 µM [6, 16]: 32% | inhibition at 22.8 µM [6, 17]: 37% | inhibition at 0.35 µM ([6]; Salmonella enterica, TYPHIMURIUM, read-out: % mutagenic inhibition, IQ 0.05 µg/plate, +S9, 0.35 µM/plate): 56% | inhibition at 0.7 µM ([6]; Salmonella enterica, TYPHIMURIUM, read-out: % mutagenic inhibition, IQ 0.05 µg/plate, +S9, 0.70 µM/plate): 67% | inhibition at 1.4 µM ([6]; Salmonella enterica, TYPHIMURIUM, read-out: % mutagenic inhibition, IQ 0.05 µg/plate, +S9, 1.40 µM/plate): 78% | inhibition at 2.85 µM ([6]; Salmonella enterica, TYPHIMURIUM, read-out: % mutagenic inhibition, IQ 0.05 µg/plate, +S9, 2.85 µM/plate): 86% | inhibition at […] ([6]; Salmonella enterica, TYPHIMURIUM, read-out: % mutagenic inhibition, IQ 0.05 µg/plate, +S9, 5.70 µM/plate): 94%
